Measured values as given in PubChem BioAssay (NCI).
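Dose response: 5 concentrations. Exposure: 48 h. Format: 96-well plates. Endpoint: linear interpolation; highest concentration if not reached. GI50 is the concentration that inhibits growth by half. Definition used: TGI = concentration required for complete inhibition of growth.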

Assays:
Experiment in all cases: NCI-60 cell line screen, 48 h
[1] = test system: MDA-MB-231 breast
[2] = test system: HOP-92 NSCLC
[3] = test system: HCC-2998 colon
[4] = test system: LOX IMVI melanoma
[5] = test system: 786-0 renal
[6] = test system: OVCAR-4 ovarian
[7] = test system: SF-539 CNS
[8] = test system: K-562 leukemia
[9] = test system: SF-268 CNS
[10] = test system: SK-MEL-28 melanoma
[11] = test system: NCI/ADR-RES ovarian
[12] = test system: SW-620 colon
[13] = test system: SK-OV-3 ovarian
[14] = test system: NCI-H23 lung
[15] = test system: HCT-15 colon
[16] = test system: NCI-H460 lung
[17] = test system: SF-295 CNS
[18] = test system: HT29 colon
[19] = test system: TK-10 renal
[20] = test system: NCI-H522 lung
[21] = test system: HL-60(TB) leukemia
[22] = test system: CCRF-CEM leukemia
[23] = test system: HCT-116 colon
[24] = test system: MALME-3M melanoma
[25] = test system: SN12C renal
[26] = test system: MCF7 breast
[27] = test system: ACHN renal
[28] = test system: EKVX NSCLC
[29] = test system: RPMI-8226 leukemia

O=C1Nc2cc(-c3ccc(NS(=O)(=O)c4ccc([N+](=O)[O-])cc4)cc3)ccc2/C1=C/c1ccc[nH]1
GI50 [1]: 16.8 µM | TGI [1]: 38.6 µM | GI50 [2]: 14.2 µM | TGI [2]: 39.6 µM | GI50 [3]: 18.6 µM | TGI [3]: > 100 µM | GI50 [4]: 13.7 µM | TGI [4]: 27.2 µM | GI50 [5]: 14.4 µM | TGI [5]: 31.1 µM | GI50 [6]: 10.9 µM | TGI [6]: 92.6 µM | GI50 [7]: 10.9 µM | TGI [7]: 23.8 µM | GI50 [8]: 11.5 µM | TGI [8]: > 100 µM | GI50 [9]: 16.4 µM | TGI [9]: 80.4 µM | GI50 [10]: 12.3 µM | TGI [10]: 28 µM | GI50 [11]: 14.8 µM | TGI [11]: 50.9 µM | GI50 [12]: 21 µM | TGI [12]: 51.2 µM | GI50 [13]: 18.2 µM | TGI [13]: 49.8 µM | GI50 [14]: 6.59 µM | TGI [14]: 26.8 µM | GI50 [15]: 11 µM | TGI [15]: 33.8 µM | GI50 [16]: 9.97 µM | TGI [16]: 32.2 µM | GI50 [17]: 11.4 µM | TGI [17]: 41.3 µM | GI50 [18]: 14.8 µM | TGI [18]: 34 µM | GI50 [19]: 16.4 µM | TGI [19]: 51.3 µM | GI50 [20]: 6.54 µM | TGI [20]: 28 µM | GI50 [21]: 27.6 µM | TGI [21]: > 100 µM | GI50 [22]: 13.6 µM | TGI [22]: > 100 µM | GI50 [23]: 13.2 µM | TGI [23]: 29 µM | GI50 [24]: 15.7 µM | TGI [24]: 37.4 µM | GI50 [25]: 14.6 µM | TGI [25]: 34.8 µM | GI50 [26]: 1.74 µM | TGI [26]: 14.1 µM | GI50 [27]: 12.1 µM | TGI [27]: 26.9 µM | GI50 [28]: 2.28 µM | TGI [28]: 32.7 µM | GI50 [29]: 6.15 µM | TGI [29]: 73.6 µM
